The values that follow come from US11331364B2, “Use for JNK inhibitor molecules for treatment of various diseases” (Xigen Inflammation Ltd., priority 2014, dated 2022).

Assay [1] has as its system human whole blood. Description: LPS-induced IL-6 release in human whole blood. The format is cell-based. The settings on record: 1, 3, 10 μM 1 h before LPS (0.02 ng/mL), 4 hours. On the procedure:
FIG. 18 JNK inhibition and IL-6 release in human whole blood. The JNK inhibitor with SEQ ID NO: 172 was added at three different concentrations, namely 1, 3 and 10 μM 1 h before whole blood stimulation with LPS (0.02 ng/mL) for 4 hours.
Whole blood is collected from anesthetized rat or human healthy volunteers using a venipuncture connected to a pre-labeled vacuum tube containing sodium citrate. Tubes are gently mixed by inversion 7-8 times; and are then kept at RT until stimulation. JNK inhibitor of SEQ ID NO: 172 is prepared 6 times concentrated in PBS, and 30 μl/well of mix is added into 96-well plate. Whole blood is diluted by 1:2 in PBS and 120 μl of diluted blood is added in each well where either PBS alone or JNK inhibitor of SEQ ID NO: 172 has been previously added. Whole blood is incubated at 37° C.; 85 rpm (Stuart Orbital incubator SI500) for 60 min. Activators (LPS) are the prepared, 30 μl/well of LPS, 6 times concentrated. After 60 min incubation, LPS is added to the blood, blood is mixed by pipetting up and down, and then kept for 4 h under agitation (85 rpm), at 37° C. […] Cytokine (IL-6, IL-2, IFNγ and TNFα) were then measured using standard Elisa kits (e.g. from R&D Systems: DuoSet Elisas; or from BD Biosciences: BD Opteia Set Elisa). Results are expressed as pg/ml of supernatant of the measured cytokine.

The subject of assay [2] is Endotoxin-Induced Uveitis (EIU) model in rats. Description: Action duration in endotoxin-induced uveitis (EIU), clinical scoring and PMN cells quantification. Type of assay: in vivo, rat. As to the method: […] (18) female Lewis rats (36 eyes) were randomly divided into 6 groups of 3 animals each. EIU was induced by a single footpad injection of 100 µl sterile pyrogen-free saline containing 200 µg of LPS (Lipopolysaccharides from Salmonella typhimurium, Sigma-Aldrich, France)(2 mg/ml).
Animals were treated 48 hours, 1 week, 2 weeks or 4 weeks before EIU induction by intravenous injection of the JNK inhibitor according to SEQ ID NO: 172 (“XG-104”) at a single dose of 1 mg/kg (dose volume 1 ml/kg) in the tail vein. Dexamethasone 2 mg/kg or vehicle (NaCl 0.9%) were injected intravenously immediately before EIU induction.
The effect of the JNK inhibitor according to SEQ ID NO: 172 (“XG-104”) on EIU was evaluated using clinical scoring and PMN cells quantification 24 hours after induction. Ocular examinations were performed by slit lamp at 24 hours i.e. at the clinical peak of the disease in this model. The intensity of clinical ocular inflammation was scored on a scale from 0 to 5 for each eye: • Grade 0: no inflammation, • Grade 1: presence of a minimal iris and conjunctival vasodilatation but without the observation of flare or cells in the anterior chamber (AC), • Grade 2: presence of moderate iris and conjunctival vessel dilation but without evident flare or cells in the AC, • Grade 3: presence of intense iris vessels dilation, flare and less than 10 cells per slit lamp, field in the AC, • Grade 4: presence of more severe clinical signs than grade 3, with more than 10 cells in the AC with or without the formation of a hypopyon, • Grade 5: presence of intense inflammatory reaction, fibrin formation in the AC and total seclusion of the pupil.
For histology, eighteen eyeballs (one per animal) were collected and fixed for 1 h at room temperature in phosphate buffered saline (PBS) containing 4% paraformaldehyde before being rinsed overnight in PBS. The next day, samples were embedded in optimal cutting temperature (OTC) compound (Tissue-Tek®, Sakura Finetek, Zoeterwoude, Netherland) and the optic nerve level using a cryostat (Leica CM 3050S, France) and mounted on super-frost slides for histology. After nuclei staining with DAPI (Sigma-Aldrich, France), sections were mounted in PBS/Glycerol (1/1) and observed by fluorescence photomicroscopy (FXA Microphot, Nikon, USA). Digitized micrographs were obtained usinga digital camera (Spot, BFI Optilas, France). PMN cells identified by the shape of their nuclei stained with DAPI, were quantified on histological sections. The analysis was performed with 2 different sections per eye at the optic nerve head level.
Twenty-four hours after LPS induction, clinical scores for the vehicle-treated rats were 4.6±0.2 (mean±SEM, n=8). Reduction was calculated as (grade in vehicle-treated eye—grade in test item treated eye)/(grade in vehicle-treated eye). A significant reduction (*p<0.05, **p<0.01) in the severity of the ocular inflammation was detected 24 hours after induction and intravenous treatment with the JNK inhibitor according to SEQ ID NO: 172 (“XG-104”) (1 mg/kg) administered 48 hours before EIU induction (mean score: 2.8±0.3), corresponding to a 40% (**) decrease of EIU scores compared with the score observed in vehicle group, 24 hours after induction and intravenous treatment with the JNK inhibitor according to SEQ ID NO: 172 (“XG-104”) (1 mg/kg) administered 1 week before EIU induction (mean score: 3.3±0.3), corresponding to a 27% (*) decrease of EIU scores compared with the score observed in vehicle group, and 24 hours after induction and intravenous treatment with the JNK inhibitor according to SEQ ID NO: 172 (“XG-104”) (1 mg/kg) administered 2 weeks before EIU induction (mean score: 3.0±0.2), corresponding to a 35% (**) decrease of EIU scores compared with the score observed in vehicle group. […]

[3] abbreviates: 1 mg/kg i.v. 1 week before EIU induction.
Setting [4] is: 1 mg/kg i.v. 2 weeks before EIU induction.
Where [5] appears, read: 1 mg/kg i.v. 4 weeks before EIU induction.
[6] abbreviates: 1 mg/kg i.v. 48 hours before EIU induction.

Square brackets hold non-standard residues; d marks the D form. Peptide text beside a SMILES is read from it.

On to `CC(C)C[C@H](NC(=O)[C@H](CC(N)=O)NC(=O)[C@H](CC(C)C)NC(=O)[C@@H](NC(=O)[C@@H](C)NC(=O)[C@@H]1CCCN1C(=O)[C@H](CCCNC(=N)N)NC(=O)[C@@H](CCCCN)NC(=O)[C@@H]1CCCN1C(=O)[C@H](CCCNC(=N)N)NC(=O)[C@@H](CCCNC(=N)N)NC(=O)[C@H](CCCNC(=N)N)NC(=O)[C@H](CCCNC(=N)N)NC(=O)[C@H](CCC(N)=O)NC(=O)[C@@H](CCCNC(=N)N)NC(=O)[C@H](CCCNC(=N)N)NC(=O)[C@H](CCCCN)NC(=O)[C@H](CCCCN)NC(=O)[C@H](N)CCCNC(=N)N)[C@@H](C)O)C(=O)N[C@H](Cc1ccccc1)C(N)=O` [SEQ ID NO: 172, rKKRrQRRrRPkRPaTLNLf] (H-[dR]KKR[dR]QRR[dR]RP[dK]RP[dA]TLNL[dF]-NH2; N-terminus assumed), for which the “LPS-induced IL-6 release” value in assay [1] is on record as “did reduce the LPS-induced IL-6 release in a dose-dependent manner”. The “clinical score (mean±SEM)” value in assay [2] (setting [3]) turned out to be 3.3±0.3; in assay [2] (setting [4]) it was 3.0±0.2; in assay [2] (setting [5]), 4.2±0.1; in assay [2] (setting [6]) it was 2.8±0.3. Also, the “decrease of EIU scores vs vehicle group” value was found to be 27% in assay [2] (setting [3]), 35% in assay [2] (setting [4]), 9% in assay [2] (setting [5]) and 40% in assay [2] (setting [6]). In addition, the “number of PMN cells” value in assay [2] (setting [4]) and in assay [2] (setting [5]) was “significantly decreased” throughout. Further, the “reduction of number of PMN cells vs vehicle” value in assay [2] (setting [4]) is reported as 88%; in assay [2] (setting [5]) it was 69%.
